Source: article PMC7954794, “Protein context shapes the specificity of SH3 domain-mediated interactions in vivo” (Nature Communications, 2021)

Columns and labels:
Assay type in all cases: cell-based, Saccharomyces cerevisiae
[1] = tested on: growth of yeast strains under 51 stress conditions; assay: Growth assays in 51 stress conditions (Fig. 1E-F, S2D, S5B); design: key to Growth (Fig. S2D) / growth of ABP1 SH3-swapped strains in stress condition: log2 colony size, average of median per strain (growth score); conditions: FigS2D
Description: All WT, SH3-deleted, KO (except for CDC25 which is the only essential SH3-containing gene in yeast), ABP1 SH3-swapped, and SLA1 SH3-shuffled strains were grown on omnitrays in 1536 formats and robotically manipulated with a pin tool (the DHFR F[1,2] bait strains were used except for the KO strains). Each strain was randomly positioned in 6 replicates per plate and two plates per condition were performed, for 12 replicates per strain in total. A border of two rows and two columns of WT strains (BY4741) around the plate was used to remove border effects. Strains were grown on YPD media for two days at 30 °C. They were then replicated on 51 different media that are described in the Supplementary Table 3 and were incubated at 37 °C in a spImager custom platform with images acquired every two hours for four days. The colony sizes from plate pictures were also measured with the R package “Gitter” and the output was manually inspected. Positions with an abnormality in colony circularity were removed. The colony sizes after 74 h of incubation at 37 °C were log2 transformed and used for the analyses. First, the differences between the two plate replicates were corrected to remove plate effects. The median colony size was calculated for each strain per plate. Strains with a difference in their median colony size of more than two between the two plate replicates were removed. Finally, the average of the median colony size was calculated for each strain per condition (growth score).

[2] = tested on: PPIs identified as affected by the SH3 domain deletions; assay: Liquid DHFR-PCA low-throughput validation of PPIs affected by SH3 deletion (Fig. S1D-E); conditions: Deletedscore/WTscore
Description: Liquid DHFR-PCA low-throughput experiments were performed to validate the PPIs identified as affected by the SH3 domain deletions in the high-throughput solid DHFR-PCA screen (256 PPIs weaker or lost and 116 PPIs stronger or gained following domain deletions). Mating and the diploid selection were performed as described for the large-scale experiment, with the exception that the plates were in 384 formats. Following the second diploid selection, diploid cells were inoculated in a 96 v-shaped well plate using a robotically manipulated 96 pin tool in a synthetic complete medium with MSG at pH 6.0 with NAT and HPH. After 48 h of growth, optical density (OD) was read using a TECAN Infinite F200 Pro, and dilutions to 1 OD in sterile nanopure water were prepared. Cells were then diluted to 0.1 OD by combining 25 µl of cell suspension at OD = 1 and 225 µl of PCA selection media without agar in a 96-wells plate. Plates were incubated at 30 °C in a TECAN Infinite M Nano and OD was monitored each 15 min for 72 h.

ABP1 = assay: DHFR-PCA on solid medium, bait ABP1 (Fig. 1B); conditions: bait ABP1, label = prey; 2-4 replicates
From the text: (§1) Supplement 41467_2021_21873_MOESM8_ESM.xlsx, sheet "Fig1B" | column: medsize; medrep; Ratio; Score

BOI2 = assay: DHFR-PCA on solid medium, bait BOI2 (Fig. 1B); conditions: bait BOI2, label = prey; 3-8 replicates
From the text: as §1

BBC1 = assay: DHFR-PCA on solid medium, bait BBC1 (Fig. 1B); conditions: bait BBC1, label = prey; 2-4 replicates
From the text: as §1

BOI1 = assay: DHFR-PCA on solid medium, bait BOI1 (Fig. 1B); conditions: bait BOI1, label = prey
From the text: as §1

BZZ1-1 = assay: DHFR-PCA on solid medium, bait BZZ1-1 (Fig. 1B); conditions: bait BZZ1-1, label = prey; 4 replicates
From the text: Supplement 41467_2021_21873_MOESM8_ESM.xlsx, sheet "Fig1B" | column: medsize; medrep; Score

BEM1-1 = assay: DHFR-PCA on solid medium, bait BEM1-1 (Fig. 1B); conditions: bait BEM1-1, label = prey; 2-8 replicates
From the text: as §1

BEM1-2 = assay: DHFR-PCA on solid medium, bait BEM1-2 (Fig. 1B); conditions: bait BEM1-2, label = prey; 2-8 replicates
From the text: as §1

BUD14 = assay: DHFR-PCA on solid medium, bait BUD14 (Fig. 1B); conditions: bait BUD14, label = prey; 4 replicates
From the text: as §1

Substance: RVS167
- growth of ABP1 SH3-swapped strains in stress condition ([1]; Bathophenanthroline.0.1uM): 10.8266
- growth of ABP1 SH3-swapped strains in stress condition ([1]; Bathophenanthroline.10uM): 10.6504
- growth of ABP1 SH3-swapped strains in stress condition ([1]; Bathophenanthroline.1uM): 10.7571
- growth of ABP1 SH3-swapped strains in stress condition ([1]; CaCl2.100mM): 10.7957
- growth of ABP1 SH3-swapped strains in stress condition ([1]; CaCl2.250mM): 10.7147
- growth of ABP1 SH3-swapped strains in stress condition ([1]; CaCl2.500mM): 10.2304
- growth of ABP1 SH3-swapped strains in stress condition ([1]; Caffein.10mM): 10.0011
- growth of ABP1 SH3-swapped strains in stress condition ([1]; Caffein.2mM): 10.9656
- growth of ABP1 SH3-swapped strains in stress condition ([1]; CdCl2.100uM): 9.478
- growth of ABP1 SH3-swapped strains in stress condition ([1]; CdCl2.10uM): 10.8675
- growth of ABP1 SH3-swapped strains in stress condition ([1]; CdCl2.50uM): 10.0052
- growth of ABP1 SH3-swapped strains in stress condition ([1]; CuSO4.1mM): 10.4401
- growth of ABP1 SH3-swapped strains in stress condition ([1]; CuSO4.5mM): 7.809
- growth of ABP1 SH3-swapped strains in stress condition ([1]; Cycloheximide.0.05.uM): 11.0732
- growth of ABP1 SH3-swapped strains in stress condition ([1]; Cycloheximide.0.2.uM): 10.5897
- growth of ABP1 SH3-swapped strains in stress condition ([1]; Cycloheximide.0.5.uM): 10.0755
- growth of ABP1 SH3-swapped strains in stress condition ([1]; DMSO.2.): 10.9922
- growth of ABP1 SH3-swapped strains in stress condition ([1]; DMSO.6.): 9.827
- growth of ABP1 SH3-swapped strains in stress condition ([1]; DMSO.8.): 9.078
- growth of ABP1 SH3-swapped strains in stress condition ([1]; Ethanol.2.): 10.7562
- growth of ABP1 SH3-swapped strains in stress condition ([1]; Ethanol.6.): 10.3054
- growth of ABP1 SH3-swapped strains in stress condition ([1]; Ethanol.8.): 10.1073
- growth of ABP1 SH3-swapped strains in stress condition ([1]; Galactose.2.): 10.7616
- growth of ABP1 SH3-swapped strains in stress condition ([1]; Glycerol.2.): 9.801
- growth of ABP1 SH3-swapped strains in stress condition ([1]; Hydroxyurea.25mM): 10.7452
- growth of ABP1 SH3-swapped strains in stress condition ([1]; Hygromycin.190uM): 10.9449
- growth of ABP1 SH3-swapped strains in stress condition ([1]; Hygromycin.19uM): 10.972
- growth of ABP1 SH3-swapped strains in stress condition ([1]; Hygromycin.95uM): 11.0099
- growth of ABP1 SH3-swapped strains in stress condition ([1]; MMS.0.004.): 10.8938
- growth of ABP1 SH3-swapped strains in stress condition ([1]; MMS.0.02.): 10.6752
- growth of ABP1 SH3-swapped strains in stress condition ([1]; MMS.0.04.): 9.941
- growth of ABP1 SH3-swapped strains in stress condition ([1]; Menadione.100uM): 10.5548
- growth of ABP1 SH3-swapped strains in stress condition ([1]; Menadione.200uM): 10.4212
- growth of ABP1 SH3-swapped strains in stress condition ([1]; Menadione.50uM): 10.7634
- growth of ABP1 SH3-swapped strains in stress condition ([1]; NaCl.0.25M): 10.7655
- growth of ABP1 SH3-swapped strains in stress condition ([1]; NaCl.1M): 9.597
- growth of ABP1 SH3-swapped strains in stress condition ([1]; Nitroquinoline.10uM): 10.6917
- growth of ABP1 SH3-swapped strains in stress condition ([1]; Nitroquinoline.50uM): 10.5789
- growth of ABP1 SH3-swapped strains in stress condition ([1]; Nystatin.0.01uM): 10.9774
- growth of ABP1 SH3-swapped strains in stress condition ([1]; Nystatin.0.1uM): 10.9878
- growth of ABP1 SH3-swapped strains in stress condition ([1]; Raffinose.2.): 11.0045
- growth of ABP1 SH3-swapped strains in stress condition ([1]; Rapamycin.10nM): 9.889
- growth of ABP1 SH3-swapped strains in stress condition ([1]; Rapamycin.50nM): 9.373
- growth of ABP1 SH3-swapped strains in stress condition ([1]; SC.pH3): 10.3957
- growth of ABP1 SH3-swapped strains in stress condition ([1]; SC.pH6): 10.965
- growth of ABP1 SH3-swapped strains in stress condition ([1]; SDS.0.01.): 10.9519
- growth of ABP1 SH3-swapped strains in stress condition ([1]; SDS.0.02.): 11.0022
- growth of ABP1 SH3-swapped strains in stress condition ([1]; SDS.0.05.): 10.8383
- growth of ABP1 SH3-swapped strains in stress condition ([1]; Sorbitol.10mM): 10.9602
- growth of ABP1 SH3-swapped strains in stress condition ([1]; Sorbitol.1mM): 11.0196
- growth of ABP1 SH3-swapped strains in stress condition ([1]; Sorbitol.5mM): 10.9136
- Ratio ([2]; prey YLR144C_1): 0.9983
- Ratio ([2]; prey YLR166C_1): 0.4047
- Ratio ([2]; prey YLR314C_1): 1.009
- Ratio ([2]; prey YLR332W_1): 0.5527
- Ratio ([2]; prey YML016C_1): 0.7209
- Ratio ([2]; prey YMR192W_1): 0.4415
- Ratio ([2]; prey YNL084C_1): 0.8207
- Ratio ([2]; prey YNL106C_1): 0.4642
- Ratio ([2]; prey YNL255C_1): 0.9975
- Ratio ([2]; prey YPL246C_1): 0.6027
- Ratio ([2]; prey YPL249C_1): 0.4423
- Ratio ([2]; prey YPR055W_1): 0.5489

Substance: YAL005C
- medrep (log2 median colony size normalized to plate background, PCA score) (ABP1): 5.43
- medrep (log2 median colony size normalized to plate background, PCA score) (BOI2): 4.382
- medrep (log2 median colony size normalized to plate background, PCA score) (BBC1): 5.353
- medrep (log2 median colony size normalized to plate background, PCA score) (BOI1; 3-8 replicates): 3.321
- Ratio (SH3-deleted/WT medrep) (BOI1; only significant differences showed, PPIs completely lost have a ratio of 0.1 and the gained PPIs 2.5): 1.412
- medrep (log2 median colony size normalized to plate background, PCA score) (BZZ1-1): 4.381
- medrep (log2 median colony size normalized to plate background, PCA score) (BEM1-1): 4.321
- medrep (log2 median colony size normalized to plate background, PCA score) (BEM1-2): 4.321
- medrep (log2 median colony size normalized to plate background, PCA score) (BUD14): 4.297
